Source: patent US20100184771A1, “Bicyclic Heterocyclic Compound” (ONO PHARMACEUTICAL CO., LTD., priority 2005, published 2010)

Columns and labels:
human CRF receptor I [1] = target: T1, human CRF receptor I (Homo sapiens, UniProt P34998); assay: Receptor antagonistic activity (cyclic AMP assay); type: cell-based; details: human/rat CRF stimulation, 37° C., 15 minutes; read-out: IC50 value, antagonistic activity against CRF (accumulated cyclic AMP)
T1 construct: expressed in transfected cells; host or cells: CHO-K1
T1 sequence (P34998 24-415): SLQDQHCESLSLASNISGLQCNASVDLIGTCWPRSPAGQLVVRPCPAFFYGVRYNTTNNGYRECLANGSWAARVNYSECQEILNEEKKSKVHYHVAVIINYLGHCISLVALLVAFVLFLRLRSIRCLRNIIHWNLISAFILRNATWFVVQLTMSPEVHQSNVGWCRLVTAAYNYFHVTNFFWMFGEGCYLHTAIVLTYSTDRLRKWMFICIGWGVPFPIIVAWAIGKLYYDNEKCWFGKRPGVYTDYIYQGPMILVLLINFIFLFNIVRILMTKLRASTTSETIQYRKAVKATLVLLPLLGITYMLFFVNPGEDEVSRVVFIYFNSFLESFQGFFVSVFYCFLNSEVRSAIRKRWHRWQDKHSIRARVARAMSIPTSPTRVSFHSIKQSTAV
Description: The forced expression cell strain of the human CRF receptor I was cultured at 37° C. under 5% carbon dioxide and 95% air by using a Ham's F-12 medium (F-12 nutrient mixture) containing 10% bovine fetal serum and 1% antibiotic substance-antifungal agent. On the previous day before the cyclic AMP was measured, the cells were inoculated into a 96-well plate in an amount of 1×10^4 cell/well. On the measurement day, the cells were washed twice with a Ham's F-12 medium, whereby a solution of Ham's F-12 medium/1 mM 3-isobutyl-1-methylxanthine (assay medium) (178 μL) was added to each well. After the incubation at 37° C. for 10 minutes, test drug solutions (2 μL) in various concentrations were added thereto, or DMSO (2 μL) was added to a CRF group and a blank group. An assay medium (20 μL) containing 10 nM human/rat CRF was added to wells of a compound group and the CRF group. An assay medium (20 μL) containing 0.00001% acetic acid was added to the blank group. Each group was further incubated at 37° C. for 15 minutes. […] The accumulated cyclic AMP amounts were calculated by subtracting mean values of corresponding 2 wells in the blank group from that of 2 wells. The IC50 values were calculated with non-linear regression analysis by defining logarithm concentration of the compound as independent variable and an accumulated cyclic AMP amount as dependent variable.

swim-stressed SD rat = assay: Elevated plus maze test with swim-stressed rat; type: in vivo; details: orally, 1 hour before the test
Description: 2 open arms with the same lengths (50×10 cm) and 2 close arms (a 30 cm wall was provided) with the same lengths (50×10 cm) were arranged in orthogonal manner at a height of 50 cm from the floor to provide an elevated crossroad maze system. In 70 cm above the both open arms, white light was provided, whereby illuminance was maintained at constant.
A 7-week-old SD rat (CHARLES RIVER LABORATORIES JAPAN) was forcedly made to swim for 120 seconds in a pool (40×30×38 cm) at 22° C. of water temperature and 25 cm of water depth. After 9 minutes of soaking stress loading, the rat was put on the center of the system. The activity for 5 minutes of the rat was analyzed with an automatic activity-tracking analysis system (EthoVision Version 3.0, Noldus Information Technology) to calculate the dwell time (second) on the open arm.
Note that no soaking stress was loaded on the control group. In addition, 20% Solutol/HS15 (5 mL/Kg) was orally administered to the vehicle group and test drugs in various concentrations were orally administrated to the test drug administration group 1 hour before the test.

human CRF receptor I [2] = target: T1, human CRF receptor I; assay: Binding assay (125I-CRF, membrane fraction of CHO-K1 cells with forced expression of the receptor); details: 125I-CRF 0.25 nM, room temperature, 2 hours
Description: The forced-expression cell strain of the human CRF receptor I (parent strain is CHO-K1 cell) was cultured until the cell was confluent and collected with a scraper. The collected cells were washed twice with PBS, and were suspended with an ice-colded binding assay buffer (Tris-HCl (50 mM, pH 7.0), EDTA (2 mM, pH 8.0), and MgCl2 (10 mM)). After fractured with a dounce-type homogenizer, the suspended cells were centrifuged at 10,000 g, and a membrane fraction was collected. The collected membrane fraction was resuspended with a little amount of the binding assay buffer, thereafter diluted with the binding assay buffer so as to have a concentration of 1 mg/mL. The obtained membrane fraction was used for a binding assay.
^125I-CRF was diluted with the binding assay buffer so as to have a concentration of 0.5 nM, whereby 50 μL of the diluted ^125I-CRF was added to a siliconized 1.5-mL tube. Next, test drugs diluted at appropriate times, such as DMSO (for general binding) or 100 μM of CRF (for non-specific binding), was added to a […]. Finally, 50 μL of the membrane fraction was added thereto and the reaction was started (final concentration of ^125I-CRF was 0.25 nM). The tube was incubated at room temperature for 2 hours. […] A membrane binding count was measured using a γ counter. The specific binding count was obtained by subtracting the non-specific count from the measured count.

In the case of `CCC(CC)c1cc(C)n2nc(-c3ccc(OC)cc3C)c(C)cc12` [Example 8, 5-(1-ethylpropyl)-2-(4-methoxy-2-methylphenyl)-3,7-dimethylpyrrolo[1,2-b]pyridazine], the IC50 (human CRF receptor I [1]) is reported as 4.9 nM, the “dwell time on the open arm compared to that of the vehicle group” value (swim-stressed SD rat; 10 mg/kg) is reported as “favorably elongated the dwell time on the open arm” and the “dwell time on the open arm compared to that of the vehicle group” value (swim-stressed SD rat) is reported as “favorably elongated the dwell time on the open arm”. For the same compound, the IC50 (human CRF receptor I [2]) was 16.4 nM.
